Reference: patent publication US20180099931A1 (AbbVie S.à.r.l., priority 2016, published 2018)
Like-named read-outs stand apart in the source and are kept apart here.

Biological target: T1, F508delCFTR (Homo sapiens, UniProt P13569, DEL508-508)
T1 construct: expressed in transfected cells; host or cells: CFBE41o- human lung-derived epithelial cells (CFBE4lo-F508delCFTR-HRP), doxycycline-inducible
Assay: Cell Surface Expression-Horse Radish Peroxidase (CSE-HRP) Assay;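 for Maximum % activity (with co-corrector): co-corrector and positive control are both the same reference corrector at 2 µM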;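 for Maximum % activity (without co-corrector): percent of the 2 µM on-plate positive control corrector response above DMSO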
Type: cell-based
Conditions: for Maximum % activity (with co-corrector): with co-corrector (2 μM); for Maximum % activity (with co-corrector) / Emax: maximum at any tested concentration, normalized to on-plate positive control; for Emax: without co-corrector, read-out: Maximum % activity (without co-corrector)

[1] = test compound without co-corrector, read-out: EC50 (without co-corrector)
[2] = with co-corrector (2 μM of 3-[(2R,4R)-4-({[1-(2,2-difluoro-1,3-benzodioxol-5-yl)cyclopropyl]carbonyl}amino)-7-methoxy-3,4-dihydro-2H-chromen-2-yl]benzoic acid), read-out: EC50 (with co-corrector)

T1 sequence (P13569 with tags, fused parts or gaps DEL508-508): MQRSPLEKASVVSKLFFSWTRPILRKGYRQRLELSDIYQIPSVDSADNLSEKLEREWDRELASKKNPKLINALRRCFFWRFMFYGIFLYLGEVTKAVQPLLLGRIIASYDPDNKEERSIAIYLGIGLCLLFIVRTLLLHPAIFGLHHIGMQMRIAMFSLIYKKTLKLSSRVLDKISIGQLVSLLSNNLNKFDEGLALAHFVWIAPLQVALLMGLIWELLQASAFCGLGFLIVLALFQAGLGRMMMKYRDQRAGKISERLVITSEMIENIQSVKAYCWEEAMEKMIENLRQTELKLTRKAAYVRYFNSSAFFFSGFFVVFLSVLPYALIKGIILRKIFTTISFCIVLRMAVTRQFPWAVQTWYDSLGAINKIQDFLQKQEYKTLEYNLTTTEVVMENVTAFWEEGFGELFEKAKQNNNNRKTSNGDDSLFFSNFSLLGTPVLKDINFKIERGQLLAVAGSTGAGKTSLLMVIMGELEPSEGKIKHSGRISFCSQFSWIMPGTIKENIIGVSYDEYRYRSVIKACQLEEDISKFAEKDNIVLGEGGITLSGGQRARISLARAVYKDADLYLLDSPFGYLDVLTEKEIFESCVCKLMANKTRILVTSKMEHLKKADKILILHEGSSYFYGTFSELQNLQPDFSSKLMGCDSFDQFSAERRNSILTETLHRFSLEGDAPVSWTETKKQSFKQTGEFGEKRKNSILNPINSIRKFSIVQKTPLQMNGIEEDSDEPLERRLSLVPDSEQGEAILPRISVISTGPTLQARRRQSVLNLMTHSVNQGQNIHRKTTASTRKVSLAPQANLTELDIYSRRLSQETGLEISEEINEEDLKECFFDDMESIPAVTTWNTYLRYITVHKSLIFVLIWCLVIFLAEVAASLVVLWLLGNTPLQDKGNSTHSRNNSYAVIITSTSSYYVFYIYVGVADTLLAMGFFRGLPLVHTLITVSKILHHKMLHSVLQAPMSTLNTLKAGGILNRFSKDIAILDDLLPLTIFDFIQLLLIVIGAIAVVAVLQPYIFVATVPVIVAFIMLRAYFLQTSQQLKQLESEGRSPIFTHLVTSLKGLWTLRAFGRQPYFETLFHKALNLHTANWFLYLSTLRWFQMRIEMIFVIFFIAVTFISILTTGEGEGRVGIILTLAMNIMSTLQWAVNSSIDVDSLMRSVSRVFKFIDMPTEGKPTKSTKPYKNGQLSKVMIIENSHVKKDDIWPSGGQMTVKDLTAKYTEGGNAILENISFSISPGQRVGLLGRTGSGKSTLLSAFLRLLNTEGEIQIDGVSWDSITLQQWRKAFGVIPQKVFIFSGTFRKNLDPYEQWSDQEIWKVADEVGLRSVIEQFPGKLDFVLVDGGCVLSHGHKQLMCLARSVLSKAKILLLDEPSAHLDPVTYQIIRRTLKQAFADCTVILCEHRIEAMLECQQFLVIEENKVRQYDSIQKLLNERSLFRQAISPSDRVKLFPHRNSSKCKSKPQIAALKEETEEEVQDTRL

SMILES | EC50 [1] [nM] | EC50 [2] [nM] | Maximum % activity (with co-corrector) | Emax [%]
CCCC1(O)CCC(C(=O)N2C(C(=O)O)C(C(C)(C)C)C(NCc3cc(C(C)(C)C)ccc3OC)C2c2ccccc2)CC1 [Example 35, (2S,3S,4S,5S)-3-tert-butyl-4-{[(5-tert-butyl-2-methoxyphenyl)methyl]amino}-1-(cis-4-hydroxy-4-propylcyclohexane-1-carbonyl)-5-phenylpyrrolidine-2-carboxylic acid] | 1000 to 10000 | < 1000 | +++ (≥350) | > 200
COc1nc(C(C)(C)C)ccc1CN[C@H]1[C@H](C(C)(C)C)[C@@H](C(=O)O)N(C(=O)[C@@H]2CCCCO2)[C@H]1c1ccccc1 [Example 38, (2S,3S,4S,5S)-3-tert-butyl-4-{[(6-tert-butyl-2-methoxypyridin-3-yl)methyl]amino}-1-[(2S)-oxane-2-carbonyl]-5-phenylpyrrolidine-2-carboxylic acid] | 1000 to 10000 | < 1000 | +++ (≥350) | > 200
COc1nc(C(C)(C)C)ccc1CN[C@H]1[C@H](C(C)(C)C)[C@@H](C(=O)O)N(C(=O)[C@H]2CCCCO2)[C@H]1c1ccccc1 [Example 39, (2S,3S,4S,5S)-3-tert-butyl-4-{[(6-tert-butyl-2-methoxypyridin-3-yl)methyl]amino}-1-[(2R)-oxane-2-carbonyl]-5-phenylpyrrolidine-2-carboxylic acid] | 1000 to 10000 | 1000 to 10000 | +++ (≥350) | 100 to 200
COc1ccc(C(C)(C)C)cc1CN[C@H]1[C@H](C(C)(C)OC)[C@@H](C(=O)O)N(C(=O)C2CCCCC2)[C@H]1c1cccnc1OC [Example 40, (2S,3S,4S,5S)-4-{[(5-tert-butyl-2-methoxyphenyl)methyl]amino}-1-(cyclohexanecarbonyl)-3-(2-methoxypropan-2-yl)-5-(2-methoxypyridin-3-yl)pyrrolidine-2-carboxylic acid] | 1000 to 10000 | 1000 to 10000 | +++ (≥350) | > 200
COc1ccc(C(C)(C)C)cc1CN[C@H]1[C@H](C(C)(C)OC)[C@@H](C(=O)O)N(C(=O)C2CCCCC2)[C@H]1c1cccnc1N(C)C [Example 41, (2S,3S,4S,5S)-4-{[(5-tert-butyl-2-methoxyphenyl)methyl]amino}-1-(cyclohexanecarbonyl)-5-[2-(dimethylamino)pyridin-3-yl]-3-(2-methoxypropan-2-yl)pyrrolidine-2-carboxylic acid] | 1000 to 10000 | < 1000 | +++ (≥350) | > 200
COc1ccc(C(C)(C)C)cc1CN[C@H]1[C@H](C(C)(C)C)[C@@H](C(=O)O)N(C(=O)[C@H]2CCCCO2)[C@H]1c1ccccc1OC(F)F [Example 45, (2S,3S,4S,5S)-3-tert-butyl-4-{[(5-tert-butyl-2-methoxyphenyl)methyl]amino}-5-[2-(difluoromethoxy)phenyl]-1-[(2R)-oxane-2-carbonyl]pyrrolidine-2-carboxylic acid] | 1000 to 10000 | 1000 to 10000 | +++ (≥350) | 100 to 200
COc1ccc(C(C)(C)C)cc1CN[C@H]1[C@H](C(C)(C)C)[C@@H](C(=O)O)N(C(=O)C2C3CCCC32)[C@H]1c1ccccc1 (stereo partly drawn) [Example 46, (2S,3S,4S,5S)-1-(bicyclo[3.1.0]hexane-6-carbonyl)-3-tert-butyl-4-{[(5-tert-butyl-2-methoxyphenyl)methyl]amino}-5-phenylpyrrolidine-2-carboxylic acid] | 1000 to 10000 | < 1000 | +++ (≥350) | > 200
COc1ncc([Si](C)(C)C)cc1CN[C@H]1[C@H](C(C)(C)C)[C@@H](C(=O)O)N(C(=O)C2CCCCC2)[C@H]1c1ccccc1 [Example 47, (2S,3S,4S,5S)-3-tert-butyl-1-(cyclohexanecarbonyl)-4-({[2-methoxy-5-(trimethylsilyl)pyridin-3-yl]methyl}amino)-5-phenylpyrrolidine-2-carboxylic acid] | < 1000 | < 1000 |  | 
COc1cnc(C(C)(C)C)cc1CN[C@H]1[C@H](C(C)(C)C)[C@@H](C(=O)O)N(C(=O)C2CCCCC2)[C@H]1c1ccccc1 [Example 48, (2S,3S,4S,5S)-3-tert-butyl-4-{[(2-tert-butyl-5-methoxypyridin-4-yl)methyl]amino}-1-(cyclohexanecarbonyl)-5-phenylpyrrolidine-2-carboxylic acid] | 1000 to 10000 | 1000 to 10000 | +++ (≥350) | 100 to 200
COc1ncc(C(F)(F)F)cc1CN[C@H]1[C@H](C(C)(C)C)[C@@H](C(=O)O)N(C(=O)[C@@H]2CCCC(F)(F)C2)[C@H]1c1ccccc1 [Example 49, (2S,3S,4S,5S)-3-tert-butyl-1-[(1R)-3,3-difluorocyclohexane-1-carbonyl]-4-({[2-methoxy-5-(trifluoromethyl)pyridin-3-yl]methyl}amino)-5-phenylpyrrolidine-2-carboxylic acid] | 1000 to 10000 | < 1000 | +++ (≥350) | > 200
COc1ccc(C(C)(C)C)cc1CN[C@H]1[C@H](C(C)(C)C)[C@@H](C(=O)O)N(C(=O)[C@H]2CCCCO2)[C@H]1c1ccccc1F [Example 50, (2S,3S,4S,5S)-3-tert-butyl-4-{[(5-tert-butyl-2-methoxyphenyl)methyl]amino}-5-(2-fluorophenyl)-1-[(2R)-oxane-2-carbonyl]pyrrolidine-2-carboxylic acid] | 1000 to 10000 | 1000 to 10000 | +++ (≥350) | 100 to 200
COc1ccc(C23CC(C2)C3)cc1CN[C@H]1[C@H](C(C)(C)C)[C@@H](C(=O)O)N(C(=O)[C@@H]2CCCCO2)[C@H]1c1cccnc1N(C)C [Example 51, (2S,3S,4S,5S)-4-({[5-(bicyclo[1.1.1]pentan-1-yl)-2-methoxyphenyl]methyl}amino)-3-tert-butyl-5-[2-(dimethylamino)pyridin-3-yl]-1-[(2S)-oxane-2-carbonyl]pyrrolidine-2-carboxylic acid] | 1000 to 10000 | < 1000 | +++ (≥350) | > 200
COc1ccc(C23CC(C2)C3)cc1CN[C@H]1[C@H](C(C)(C)C)[C@@H](C(=O)O)N(C(=O)[C@H]2CCCCO2)[C@H]1c1cccnc1N(C)C [Example 52, (2S,3S,4S,5S)-4-({[5-(bicyclo[1.1.1]pentan-1-yl)-2-methoxyphenyl]methyl}amino)-3-tert-butyl-5-[2-(dimethylamino)pyridin-3-yl]-1-[(2R)-oxane-2-carbonyl]pyrrolidine-2-carboxylic acid] | 1000 to 10000 | 1000 to 10000 | +++ (≥350) | 100 to 200
COc1ccc(C(C)(C)C)cc1CN[C@H]1[C@H](C(C)(C)C)[C@@H](C(=O)O)N(C(=O)C2CC(C)(C)OC(C)(C)C2)[C@H]1c1ccccc1 [Example 54, (2S,3S,4S,5S)-3-tert-butyl-4-{[(5-tert-butyl-2-methoxyphenyl)methyl]amino}-5-phenyl-1-(2,2,6,6-tetramethyloxane-4-carbonyl)pyrrolidine-2-carboxylic acid] | 1000 to 10000 | < 1000 | +++ (≥350) | > 200
COc1ncc(C(C)(C)C)cc1N[C@H]1[C@H](C(C)(C)C)[C@@H](C(=O)O)N(C(=O)C2CCCCC2)[C@H]1c1ccccc1 [Example 55, (2S,3S,4S,5S)-3-tert-butyl-4-[(5-tert-butyl-2-methoxypyridin-3-yl)amino]-1-(cyclohexanecarbonyl)-5-phenylpyrrolidine-2-carboxylic acid] | 1000 to 10000 | 1000 to 10000 | ++ (≥150 and <350) | < 100
COc1ccc(C(F)(F)F)cc1CN[C@H]1[C@H](C23CC(C2)C3)[C@@H](C(=O)O)N(C(=O)C2CCCCC2)[C@H]1c1ccccc1 [Example 56] | 1000 to 10000 | < 1000 | +++ (≥350) | 100 to 200
COc1ncc(C(F)(F)F)cc1CN[C@H]1[C@H](C23CC(C2)C3)[C@@H](C(=O)O)N(C(=O)C2CCCCC2)[C@H]1c1ccccc1 [Example 57, (2S,3S,4S,5S)-3-(bicyclo[1.1.1.1]pentan-1-yl)-1-(cyclohexanecarbonyl)-4-({[2-methoxy-5-(trifluoromethyl)pyridin-3-yl]methyl}amino)-5-phenylpyrrolidine-2-carboxylic acid] | < 1000 | < 1000 | +++ (≥350) | 100 to 200
COc1ccc(C(C)(C)C)cc1CN[C@H]1[C@H](C(C)(C)C)[C@@H](C(=O)NS(C)(=O)=O)N(C(=O)C2CCCCC2)[C@H]1c1ccccc1 [Example 58, (2S,3S,4S,5S)-3-tert-butyl-4-{[(5-tert-butyl-2-methoxyphenyl)methyl]amino}-1-(cyclohexanecarbonyl)-N-(methanesulfonyl)-5-phenylpyrrolidine-2-carboxamide] | 1000 to 10000 | 1000 to 10000 | ++ (≥150 and <350) | < 100
COc1ccc(C(C)(C)C)cc1CN[C@H]1[C@H](C(C)(C)C)[C@@H](C(=O)O)N(C(=O)[C@@H]2CCCCO2)[C@H]1c1ccccc1OC(F)F [Example 59, (2S,3S,4S,5S)-3-tert-butyl-4-{[(5-tert-butyl-2-methoxyphenyl)methyl]amino}-5-[2-(difluoromethoxy)phenyl]-1-[(2S)-oxane-2-carbonyl]pyrrolidine-2-carboxylic acid] | 1000 to 10000 | < 1000 | +++ (≥350) | > 200
